Source: ChEMBL document CHEMBL5154865, “Antibiotic natural product hunanamycin A: Lead identification towards anti-Salmonella agents” (Eur J Med Chem, 2022)
Converted amounts (≈) assume the structure as drawn.

Columns and labels:
[1] = system: Salmonella enterica; assay: Antibacterial activity against Salmonella enterica ATCC 6539 assessed as microbial cell viability incubated for 24 hr by quantification of ATP multimode plate reader method; type: functional
[2] = Stability in human plasma measured after 60 mins LC-MS/MS analysis; type: ADME, cell-free; conditions: read-out: Stability
[3] = Acute toxicity in Swiss albino mouse assessed as lethal dose administered orally daily for 14 days; conditions: in vivo, route po, time 14 day
[4] = Acute toxicity in Swiss albino mouse assessed as mortality at 2 g/Kg, po administered daily for 14 days; type: organism-based; conditions: in vivo, 2000 mg/kg, 336 h, time 14 day
[5] = Plasma protein binding in human measured at 150 uM preincubated for 30 mins followed by addition of dialysis buffer measured after 4 hrs by LC-MS/MS analysis; type: ADME, cell-free; conditions: read-out: PPB (converted)
[6] = Solubility of compound in DMSO at pH 4.5 after 5 mins measured by HPLC analysis; type: physicochemical
[7] = Solubility of compound in DMSO at pH 10.2 after 5 mins measured by HPLC analysis; type: physicochemical
[8] = Solubility of compound in DMSO at pH 7.4 after 5 mins measured by HPLC analysis; type: physicochemical
[9] = Metabolic stability in mouse liver microsomes measured at 1 uM after 30 mins by LC-MS/MS analysis; type: ADME, Microsome; conditions: read-out: Stability
[10] = Solubility of compound in DMSO at pH 1.2 after 5 mins measured by HPLC analysis; type: physicochemical
[11] = Solubility of compound in DMSO at pH 2.2 after 5 mins measured by HPLC analysis; type: physicochemical
[12] = Metabolic stability in human liver microsomes measured at 1 uM after 30 mins by LC-MS/MS analysis; type: ADME, Microsome; conditions: read-out: Stability

CC(C)=CCn1c(=O)c(=O)n(C[C@H](O)[C@H](O)[C@H](O)CO)c2cc(C)c(C)cc21
MIC [1]: 16 µg/mL (≈ 40.8 µM)

Cn1nnc(Cn2c(=O)c(=O)n3c4c(cccc42)C(C)(C)CC3)n1
MIC [1]: 16 µg/mL (≈ 49 µM)

CC1(C)CCn2c(=O)c(=O)n(CCO)c3cccc1c32
MIC [1]: 24 µg/mL (≈ 87.5 µM)

Cc1cc2c3c(c1C)C(C)(C)CCn3c(=O)c(=O)n2C[C@H](O)[C@H](O)[C@H](O)CO
remaining at 1 h [2]: 100% | MIC [1]: 8 µg/mL (≈ 20.4 µM) | LD50 at 336 h [3]: > 2000 mg/kg | Activity [4]: Non-Toxic | fraction unbound at 4 h, 150 µM [5]: 0.412 | solubility at 5 min [6]: 50 µM (≈ 19.6 µg/mL) | solubility at 5 min [7]: 49.3 µM (≈ 19.3 µg/mL) | solubility at 5 min [8]: 49.4 µM (≈ 19.4 µg/mL) | remaining at 0.5 h, 1 µM [9]: 99.6% | solubility at 5 min [10]: 50.8 µM (≈ 19.9 µg/mL) | solubility at 5 min [11]: 50.4 µM (≈ 19.8 µg/mL) | remaining at 0.5 h, 1 µM [12]: 100%

CCOC(=O)Cn1cc(Cn2c(=O)c(=O)n3c4c(cccc42)C(C)(C)CC3)nn1
MIC [1]: 16 µg/mL (≈ 40.3 µM)

CC1(C)CCn2c(=O)n(Cc3cn(CCO)nn3)c3cccc1c32
MIC [1]: 16 µg/mL (≈ 48.9 µM)

CC1(C)CCn2c(=O)n(Cc3nn[nH]n3)c3cccc1c32
MIC [1]: > 32 µg/mL

CO[C@@H]1O[C@H](Cn2cc(Cn3c(=O)c(=O)n4c5c(cccc53)C(C)(C)CC4)nn2)[C@H]2OC(=O)O[C@@H]12
MIC [1]: 32 µg/mL (≈ 66.2 µM)

CCOC(=O)Cn1c(=O)c(=O)n2c3c(cccc31)C(C)(C)CC2
MIC [1]: 8 µg/mL (≈ 25.3 µM)

CC1(C)CCn2c(=O)c(=O)n(C[C@H](O)[C@H](O)[C@H](O)CO)c3cccc1c32
MIC [1]: 16 µg/mL (≈ 43.9 µM)

CO[C@@H]1O[C@H](Cn2c(=O)n3c4c(cccc42)C(C)(C)CC3)[C@H]2OC(=O)O[C@@H]12
MIC [1]: 32 µg/mL (≈ 85.5 µM)

CO[C@@H]1O[C@H](Cn2cc(Cn3c(=O)c(=O)n4c5c(cccc53)C(C)(C)CC4)nn2)[C@@H](O)[C@H]1O
MIC [1]: 32 µg/mL (≈ 69.9 µM)

CCOC(=O)Cn1c(=O)c(=O)n(C[C@H](O)[C@H](O)[C@H](O)CO)c2cc(C)c(C)cc21
MIC [1]: 16 µg/mL (≈ 39 µM)

CC1(C)CCn2c(=O)c(=O)n(Cc3nn[nH]n3)c3cccc1c32
remaining at 1 h [2]: 99.9% | MIC [1]: 4 µg/mL (≈ 12.8 µM) | fraction unbound at 4 h, 150 µM [5]: 0.0205 | solubility at 5 min [6]: 50.5 µM (≈ 15.8 µg/mL) | solubility at 5 min [7]: 51.8 µM (≈ 16.2 µg/mL) | solubility at 5 min [8]: 51.8 µM (≈ 16.2 µg/mL) | remaining at 0.5 h, 1 µM [9]: 96.1% | solubility at 5 min [10]: 51.8 µM (≈ 16.2 µg/mL) | solubility at 5 min [11]: 51.2 µM (≈ 16 µg/mL) | remaining at 0.5 h, 1 µM [12]: 98.9%

CC1(C)CCn2c(=O)n(CC(O)CO)c3cccc1c32 (configuration not stated)
MIC [1]: 16 µg/mL (≈ 57.9 µM)

Cc1cc2c(cc1C)n(C[C@H](O)[C@H](O)[C@H](O)CO)c(=O)c(=O)n2CC=C1CCCCC1
MIC [1]: 32 µg/mL (≈ 74 µM)

CCOC(=O)Cn1cc(Cn2c(=O)n3c4c(cccc42)C(C)(C)CC3)nn1
MIC [1]: 8 µg/mL (≈ 21.7 µM)

Cc1cc2c(cc1C)n(C[C@H](O)[C@H](O)[C@H](O)CO)c(=O)c(=O)n2CCC1CCCCC1
MIC [1]: 8 µg/mL (≈ 18.4 µM)

CC1(C)CCn2c(=O)c(OC[C@H](O)[C@H](O)[C@H](O)CO)nc3cccc1c32
MIC [1]: 16 µg/mL (≈ 43.9 µM)

CC1(C)CCn2c(=O)[nH]c(=O)c3cccc1c32
MIC [1]: 16 µg/mL (≈ 69.5 µM)

Cc1cc2c3c(c1C)C(C)(C)CCn3c(=O)c(=O)n2CC(O)CO (configuration not stated)
MIC [1]: 16 µg/mL (≈ 48.1 µM)

CC1(C)CCn2c(=O)n(Cc3cn(C[C@H](O)[C@H](O)[C@H](O)CO)nn3)c3cccc1c32
MIC [1]: 32 µg/mL (≈ 76.7 µM)

CO[C@@H]1O[C@H](Cn2c(=O)n3c4c(cccc42)C(C)(C)CC3)[C@@H](O)[C@H]1O
remaining at 1 h [2]: 98% | MIC [1]: 2 µg/mL (≈ 5.74 µM) | fraction unbound at 4 h, 150 µM [5]: 0.338 | solubility at 5 min [6]: 48.8 µM (≈ 17 µg/mL) | solubility at 5 min [7]: 48.6 µM (≈ 16.9 µg/mL) | solubility at 5 min [8]: 48.5 µM (≈ 16.9 µg/mL) | remaining at 0.5 h, 1 µM [9]: 74.3% | solubility at 5 min [10]: 41.2 µM (≈ 14.4 µg/mL) | solubility at 5 min [11]: 48.4 µM (≈ 16.8 µg/mL) | remaining at 0.5 h, 1 µM [12]: 90%

CC1(C)CCn2c(=O)n(C[C@H](O)[C@H](O)[C@H](O)CO)c3cccc1c32
remaining at 1 h [2]: 99.9% | MIC [1]: 4 µg/mL (≈ 11.9 µM) | fraction unbound at 4 h, 150 µM [5]: 0.578 | solubility at 5 min [6]: 47.8 µM (≈ 16.1 µg/mL) | solubility at 5 min [7]: 47.6 µM (≈ 16 µg/mL) | solubility at 5 min [8]: 47.4 µM (≈ 15.9 µg/mL) | remaining at 0.5 h, 1 µM [9]: 96.4% | solubility at 5 min [10]: 48.2 µM (≈ 16.2 µg/mL) | solubility at 5 min [11]: 48 µM (≈ 16.1 µg/mL) | remaining at 0.5 h, 1 µM [12]: 100%

Cc1cc2[nH]c(=O)c(=O)n(C[C@H](O)[C@H](O)[C@H](O)CO)c2cc1C
MIC [1]: > 32 µg/mL

CC1(C)CCn2c(=O)c(=O)n(CCCCO)c3cccc1c32
MIC [1]: 32 µg/mL (≈ 106 µM)

CC1(C)CCn2c(=O)c(=O)n(CC(N)=O)c3cccc1c32
MIC [1]: 24 µg/mL (≈ 83.5 µM)

CC1(C)CCn2c(=O)n(CCCO)c3cccc1c32
MIC [1]: > 32 µg/mL

CC1(C)CCn2c(=O)c(=O)n(Cc3ccccc3)c3cccc1c32
MIC [1]: 32 µg/mL (≈ 99.9 µM)

CO[C@@H]1O[C@H](Cn2c(=O)c(=O)n3c4c(cccc42)C(C)(C)CC3)[C@@H](O)[C@H]1O
MIC [1]: 16 µg/mL (≈ 42.5 µM)

CO[C@@H]1O[C@H](Cn2c(=O)n3c4c(cccc42)C(C)(C)CC3)[C@@H](OC)[C@H]1OC
MIC [1]: > 32 µg/mL

CC1(C)CCn2c(=O)c(=O)n(CC(=O)O)c3cccc1c32
MIC [1]: 16 µg/mL (≈ 55.5 µM)

C=CCn1c(=O)c(=O)n(C[C@H](O)[C@H](O)[C@H](O)CO)c2cc(C)c(C)cc21
MIC [1]: 16 µg/mL (≈ 43.9 µM)

CC1(C)CCn2c(=O)c(=O)[nH]c3cccc1c32
MIC [1]: 16 µg/mL (≈ 69.5 µM)

CC1(C)CCn2c(=O)n(C[C@H](O)[C@@H](O)CO)c3cccc1c32
MIC [1]: 16 µg/mL (≈ 52.2 µM)

CCn1c(=O)c(=O)n(C[C@H](O)[C@H](O)[C@H](O)CO)c2cc(C)c(C)cc21
MIC [1]: > 32 µg/mL

C#CCn1c(=O)c2cccc3c2n(c1=O)CCC3(C)C
MIC [1]: 24 µg/mL (≈ 89.4 µM)

CCOC(=O)Cn1cc(Cn2c(=O)c3cccc4c3n(c2=O)CCC4(C)C)nn1
MIC [1]: > 32 µg/mL

CCCCCn1c(=O)c(=O)n2c3c(cccc31)C(C)(C)CC2
MIC [1]: 32 µg/mL (≈ 107 µM)

Cc1cc2nc(OC[C@H](O)[C@H](O)[C@H](O)CO)c(=O)n3c2c(c1C)C(C)(C)CC3
MIC [1]: 8 µg/mL (≈ 20.4 µM)

CC1(C)CCn2c(=O)c(=O)n(Cc3ccccn3)c3cccc1c32
MIC [1]: 24 µg/mL (≈ 74.7 µM)

CC1(C)CCn2c(=O)c(=O)n(CC(O)CO)c3cccc1c32 (configuration not stated)
MIC [1]: 8 µg/mL (≈ 26.3 µM)

CC1(C)CCn2c(=O)c(=O)n(CCCO)c3cccc1c32
remaining at 1 h [2]: 82.4% | MIC [1]: 1 µg/mL (≈ 3.47 µM) | LD50 at 336 h [3]: > 2000 mg/kg | Activity [4]: Non-Toxic | fraction unbound at 4 h, 150 µM [5]: 0.389 | solubility at 5 min [6]: 50.1 µM (≈ 14.4 µg/mL) | solubility at 5 min [7]: 50.2 µM (≈ 14.5 µg/mL) | solubility at 5 min [8]: 50.1 µM (≈ 14.5 µg/mL) | remaining at 0.5 h, 1 µM [9]: 96.1% | solubility at 5 min [10]: 51.2 µM (≈ 14.8 µg/mL) | solubility at 5 min [11]: 50.8 µM (≈ 14.7 µg/mL) | remaining at 0.5 h, 1 µM [12]: 100%

CC1(C)CCn2c(=O)n(Cc3cn([C@@H]4O[C@H](CO)[C@@H](O)[C@H]4O)nn3)c3cccc1c32
MIC [1]: 32 µg/mL (≈ 77 µM)

CC1(C)CCn2c(=O)c(OCC(O)CO)nc3cccc1c32 (single isomer, unassigned)
MIC [1]: 16 µg/mL (≈ 52.6 µM)

CO[C@@H]1O[C@H](Cn2cc(Cn3c(=O)c4cccc5c4n(c3=O)CCC5(C)C)nn2)[C@@H](O)[C@H]1O (single isomer, unassigned)
MIC [1]: > 32 µg/mL

CC1(C)CCn2c(=O)n(Cc3cn([C@@H]4OC(CO)C(O)C4O)nn3)c(=O)c3cccc1c32 (single isomer, unassigned)
MIC [1]: > 32 µg/mL

CC1(C)CCn2c(=O)c(=O)n(Cc3cn([C@@H]4OC(CO)C(O)C4O)nn3)c3cccc1c32 (single isomer, unassigned)
MIC [1]: 32 µg/mL (≈ 72.2 µM)
